Where a name gives a salt, the structure may show the parent alone. Read-outs that look alike come from different tables or passages of the source.
Assays:
A431 cells = test: PrestoBlue viability assay, A431 cells
MES-SA cells = test: PrestoBlue viability assay, MES-SA cells; settings: for pIC50 value MES-SA: MES-SA cells, without TQ
A431-B1 cells = test: PrestoBlue viability assay, A431-B1 (A431-ABCB1) cells; settings: for SR (A431 / A431-B1): fraction of IC50 in P-gp negative vs positive cells
MES-SA/Dx5 cells = test: PrestoBlue viability assay, MES-SA/Dx5 cells (MDR, P-gp positive); settings: for pIC50 value MES-SA/Dx5: MES-SA/Dx5 cells, without TQ
[1] = Homo sapiens, A-431, 72 h, read-out: IC50 / µM A431, 72 h incubation
[2] = Homo sapiens, A-431, read-out: pIC50 A431, SARM figure (converted)
[3] = Homo sapiens, MES-SA, 72 h, read-out: IC50 / μM MES-SA, absence of TQ, 72 h incubation
[4] = Homo sapiens, MES-SA, read-out: pIC50 value MES-SA, MES-SA cells, without TQ (converted)
[5] = 72 h, read-out: IC50 / µM A431-B1, 72 h incubation
[6] = read-out: pIC50 A431-B1, SARM figure (converted)
[7] = Homo sapiens, MES-SA/Dx5, 72 h, read-out: IC50 / μM MES-SA/Dx5, absence of TQ, 72 h incubation
[8] = Homo sapiens, MES-SA/Dx5, read-out: pIC50 value MES-SA/Dx5, MES-SA/Dx5 cells, without TQ (converted)
[9] = selectivity ratio MES-SA vs MES-SA/Dx5, without TQ
[10] = Homo sapiens, MES-SA, read-out: IC50 / μM MES-SA (values in parentheses), presence of 1 μM P-gp inhibitor tariquidar (TQ)
[11] = Homo sapiens, MES-SA, read-out: pIC50 value MES-SA+TQ, MES-SA cells, with TQ (converted)
[12] = Homo sapiens, MES-SA/Dx5, read-out: IC50 / μM MES-SA/Dx5 (values in parentheses), presence of 1 μM P-gp inhibitor tariquidar (TQ)
[13] = selectivity ratio MES-SA vs MES-SA/Dx5, with TQ
[14] = Homo sapiens, MES-SA/Dx5, read-out: pIC50 value MES-SA/Dx5 + TQ, MES-SA/Dx5 cells, with TQ (converted)
[15] = read-out: IC50 / μM MES-SA, absence of TQ, 72 h incubation
[16] = read-out: IC50 / μM MES-SA/Dx5, absence of TQ, 72 h incubation

Row | Compound | IC50 (A431 cells; [1]) [µM] | IC50 (A431 cells; [2]) [µM] | IC50 (MES-SA cells; [3]) [µM] | IC50 (MES-SA cells; [4]) [µM] | IC50 (A431-B1 cells; [5]) [µM] | IC50 (A431-B1 cells; [6]) [µM] | IC50 (MES-SA/Dx5 cells; [7]) [µM] | IC50 (MES-SA/Dx5 cells; [8]) [µM] | SR (MES-SA/Dx5 cells; [9]) | IC50 (MES-SA cells; [10]) [µM] | IC50 (MES-SA cells; [11]) [µM] | IC50 (MES-SA/Dx5 cells; [12]) [µM] | SR_TQ (MES-SA/Dx5 cells; [13]) | IC50 (MES-SA/Dx5 cells; [14]) [µM] | further results
1 | CCOCc1cc(CN2CCOCC2)c(O)c2ncccc12 [Compound 32] | 24.7 ± 10.9 | 22.4 | 5.85 ± 0.54 | 5.75 | 5.58 ± 0.58 | 5.5 | 3 ± 0.3 | 2.95 | 1.95 | – | – | – | – | – | –
2 | Oc1c(CN2CCN(c3ccccn3)CC2)cc(Cl)c2cccnc12 [Compound 43] | 9.41 ± 1.41 | 9.33 | 2.19 ± 0.12 | 2.19 | 8.06 ± 2.89 | 7.59 | 0.33 ± 0.05 | 0.331 | 6.55 | 2.19 ± 0.17 | 2.19 | 1.23 ± 0.05 | 1.78 | – | IC50 (MES-SA cells; Homo sapiens, MES-SA, read-out: pIC50 MES-SA, absence of TQ (converted), SARM figure): 2.19 µM; IC50 (MES-SA cells; Homo sapiens, MES-SA, read-out: pIC50 MES-SA_TQ, presence of 1 μM TQ (converted), SARM figure): 2.19 µM
3 | O=[N+]([O-])c1cc(CN(CCO)CCO)c(O)c2ncccc12 [Compound 7] | 9.79 ± 1.13 | – | 6.46 ± 0.49 | 6.46 | 9.18 ± 0.58 | – | 4.33 ± 0.2 | 4.37 | 1.49 | – | – | – | – | – | SR (A431 / A431-B1) (A431-B1 cells): 1.07
4 | CCOCc1cc(CN2CCN(c3ccccc3)CC2)c(O)c2ncccc12 [Compound 40] | 6.24 ± 1.95 | 5.89 | 1.27 ± 0.15 | 1.26 | 1.94 ± 0.19 | 1.91 | 0.34 ± 0.04 | 0.339 | 3.72 | 1.62 ± 0.005 | 1.62 | 1.05 ± 0.1 | 1.54 | 1.05 | –
5 | OCCN(CCO)Cc1cc(Cl)c2cccnc2c1O [Compound 6] | 73.6 ± 0.75 | – | 31.2 ± 4.04 | 30.9 | 20.5 ± 0.95 | – | 5.28 ± 1.28 | 5.13 | 5.91 | 25.3 | 25.1 | 15.4 | 1.64 | – | SR (A431 / A431-B1) (A431-B1 cells): 3.60; SR (MES-SA_TQ / Dx5_TQ) (values in parentheses) (MES-SA/Dx5 cells; fraction of IC50 in P-gp negative vs positive cells, presence of 1 μM TQ): 1.64
6 | COCc1cc(CN2CCCC2)c(O)c2ncccc12 [Compound 17] | 53.2 ± 6.49 | 52.5 | 11.1 ± 1.78 | 11 | 4.05 ± 0.07 | 4.07 | 1.37 ± 0.26 | 1.35 | 8.09 | 10.5 ± 0.17 | 10.5 | 3.59 ± 0.53 | 2.92 | 3.55 | –
7 | CCN(CC)Cc1ccc2cccnc2c1O [Compound 1] | 14.8 ± 0.41 | 13.5 | 7.35 ± 1.28 | 7.24 | 4.51 ± 0.73 | 5.01 | 1.64 ± 0.24 | 1.62 | 4.49 | 5.15 | 5.13 | 3.04 | 1.69 | 3.02 | IC50 (A431 cells; read-out: IC50 / µM A431, 72 h incubation): 13.4 ± 0.18 µM; IC50 (A431-B1 cells; read-out: IC50 / µM A431-B1, 72 h incubation): 4.99 ± 0.52 µM
8 | CN1CCN(C(c2ccccn2)c2cc(Cl)c3cccnc3c2O)CC1 (stereo not drawn) [Compound 114] | – | 49 | 16 ± 1.31 | 15.8 | – | 17.4 | 13.9 ± 0.46 | 13.8 | 1.15 | – | – | – | – | – | –
9 | Oc1c(C(c2ccccn2)N2CCCCC2)cc(Cl)c2cccnc12 (stereo not drawn) [Compound 98] | – | 50.1 | 31.9 ± 1.55 | 31.6 | – | 24 | 16.6 ± 0.88 | 16.6 | 1.92 | – | 33.1 | – | 2.45 | 13.5 | –
10 | CCCOCc1cc(CN2CCN(C)CC2)c(O)c2ncccc12 [Compound 37] | 19.9 ± 9.14 | 18.2 | 13.5 ± 0.86 | 13.5 | 6.19 ± 1.73 | 5.89 | 3.24 ± 0.19 | 3.24 | 4.17 | 12.3 ± 0.28 | 12.3 | 7.41 ± 0.01 | 1.66 | 7.41 | –
11 | Oc1c(CN2CCOCC2)ccc2cccnc12 [Compound 8] | 14.5 ± 0.32 | – | 7.55 ± 0.91 | 7.41 | 6.51 ± 0.65 | – | 4.33 ± 0.31 | 4.27 | 1.75 | – | – | – | – | – | SR (A431 / A431-B1) (A431-B1 cells): 2.23
12 | Oc1c(CN2CCOCC2)cc(Br)c2cccnc12 [Compound 30] | 9.3 ± 3.05 | 8.91 | 1.13 ± 0.13 | 1.12 | 2.89 ± 0.25 | 2.88 | 0.46 ± 0.04 | 0.457 | 2.46 | 1.32 ± 0.01 | 1.32 | 0.85 ± 0.06 | 1.54 | 0.851 | –
13 | COCc1cc(CN2CCN(c3ccccc3)CC2)c(O)c2ncccc12 [Compound 39] | 9.99 ± 4.76 | 8.91 | 1.08 ± 0.15 | 1.07 | 2.33 ± 0.35 | 2.29 | 0.48 ± 0.07 | 0.479 | 2.23 | 1.2 ± 0.05 | 1.2 | 0.85 ± 0.08 | 1.41 | 0.851 | –
14 | CCN1CCN(C(c2cccs2)c2ccc3cccnc3c2O)CC1 (stereo not drawn) [Compound 116] | – | – | 9.06 ± 0.23 | 9.12 | – | – | 14.2 ± 1.36 | 14.1 | 0.64 | – | – | – | – | – | –
15 | CN1CCN(C(c2ccncc2)c2ccc3cccnc3c2O)CC1 (stereo not drawn) [Compound 112] | – | – | 22.1 ± 2.7 | 21.9 | – | – | 11 ± 2.12 | 10.7 | 2.02 | – | 32.4 | – | 1.58 | 20.4 | –
16 | Oc1ccc(CN2CCc3ccccc3C2)c2cccnc12 [Compound 50] | – | – | 16.7 ± 1.5 | 16.6 | – | – | 17 ± 0.49 | 17 | 0.99 | – | – | – | – | – | –
17 | Oc1cc2c(cc1O)CN(Cc1ccc3cccnc3c1O)CC2 [Compound 82, 2-((8-Hydroxy-quinolin-7-yl)methyl)-1,2,3,4-tetrahydroisoquinoline-6,7-diol Hydrochloride] | – | – | 3.42 ± 0.28 | 3.39 | – | – | 3.61 ± 0.51 | 3.55 | 0.95 | – | – | – | – | – | –
18 | Oc1c(C(c2cccnc2)N2CCCC2)ccc2cccnc12 (stereo not drawn) [Compound 85] | – | – | 41 | 40.7 | – | 52.5 | 23.3 | 23.4 | 1.76 | – | – | – | – | – | –
19 | Oc1c(C(c2cccs2)N2CCCCC2)ccc2cccnc12 (stereo not drawn) [Compound 94] | – | – | 8.88 ± 0.93 | 8.91 | – | – | 11.6 ± 0.94 | 11.5 | 0.76 | – | – | – | – | – | –
20 | Oc1cccc2cccnc12 [Compound 12, 8-hydroxyquinoline] | – | – | – | – | – | – | – | – | – | – | – | – | – | – | IC50 (MES-SA cells; Homo sapiens, MES-SA, 72 h, read-out: IC50 / μM MES-SA): 5.04 ± 0.51 µM; IC50 (MES-SA cells; Homo sapiens, MES-SA, read-out: IC50 / μM MES-SA (values in parentheses)): 5.13 ± 0.05 µM; IC50 (MES-SA cells; Homo sapiens, MES-SA, read-out: pIC50 value MES-SA (converted)): 5.01 µM; IC50 (MES-SA cells; Homo sapiens, MES-SA, read-out: pIC50 value MES-SA+TQ (converted)): 5.13 µM; SR (MES-SA/Dx5 cells): 1.66; SR_TQ (MES-SA/Dx5 cells): 2.34; IC50 (MES-SA/Dx5 cells; Homo sapiens, MES-SA/Dx5, 72 h, read-out: IC50 / μM MES-SA/Dx5): 3.04 ± 0.35 µM; IC50 (MES-SA/Dx5 cells; Homo sapiens, MES-SA/Dx5, read-out: IC50 / μM MES-SA/Dx5 (values in parentheses)): 2.2 ± 0.18 µM; IC50 (MES-SA/Dx5 cells; Homo sapiens, MES-SA/Dx5, read-out: pIC50 value MES-SA/Dx5 (converted)): 3.02 µM; IC50 (MES-SA/Dx5 cells; Homo sapiens, MES-SA/Dx5, read-out: pIC50 value MES-SA/Dx5 + TQ (converted)): 2.19 µM
21 | Oc1c(C(c2ccccn2)N2CCN(c3ccccn3)CC2)ccc2cccnc12 (stereo not drawn) [Compound 121] | – | – | – | – | – | – | – | – | 1.81 | – | – | – | – | – | pIC50 value MES-SA (MES-SA cells): 4.39; IC50 (MES-SA cells; [15]): 40.9 ± 2.86 µM; pIC50 value MES-SA/Dx5 (MES-SA/Dx5 cells): 4.65; IC50 (MES-SA/Dx5 cells; [16]): 22.6 ± 2.85 µM
22 | O=Cc1ccc(O)c(CN2CCCCC2)c1 [Compound 61] | – | – | > 100 | – | – | – | > 100 | – | – | – | – | – | – | – | –
23 | OCCN1CCN(C(c2ccc(F)cc2)c2ccc3cccnc3c2O)CC1 (racemic) [Compound 120] | – | – | – | – | – | – | – | – | 2.29 | – | – | – | 1.55 | – | pIC50 value MES-SA (MES-SA cells): 4.18; IC50 (MES-SA cells; [15]): 66.7 ± 4.56 µM; pIC50 value MES-SA/Dx5 (MES-SA/Dx5 cells): 4.55; IC50 (MES-SA/Dx5 cells; [16]): 29.1 ± 7.12 µM
24 | 2-((4-Methylpiperazin-1-yl)methyl)phenol [Compound 72] | – | – | – | – | – | – | – | – | – | – | – | – | – | – | IC50 (MES-SA cells; [15]): > 100 µM; IC50 (MES-SA/Dx5 cells; [16]): > 100 µM
25 | Oc1c(C(c2ccccc2Cl)N2CCOCC2)ccc2cccnc12 (stereo not drawn) [Compound 105] | – | – | – | – | – | – | – | – | 1.13 | – | – | – | – | – | pIC50 value MES-SA (MES-SA cells): 4.73; IC50 (MES-SA cells; [15]): 18.45 ± 0.14 µM; pIC50 value MES-SA/Dx5 (MES-SA/Dx5 cells): 4.79; IC50 (MES-SA/Dx5 cells; [16]): 16.4 ± 1.02 µM
26 | COc1ccc(O)c(CN2CCCCC2)c1 [Compound 60] | – | – | > 100 | – | – | – | > 100 | – | – | – | – | – | – | – | –
